Source: patent US7282507B2, “Indole derivatives as selective androgen receptor modulators (SARMS)” (Janssen Pharmaceutica N.V., priority 2004, dated 2007)

What follows are molecules tested against T1, androgen receptor (AdEasy+rAR, L929 cells) (Rattus norvegicus, UniProt P15207) (assay: L929 Androgen Receptor Functional Assay, Adenovirus Transduction). Conditions: agonist testing, 3000 nM.
T1 construct: expressed in transfected cells; host or cells: L929 cells transduced with adenovirus AdEasy+rAR
T1 sequence (P15207 1-902): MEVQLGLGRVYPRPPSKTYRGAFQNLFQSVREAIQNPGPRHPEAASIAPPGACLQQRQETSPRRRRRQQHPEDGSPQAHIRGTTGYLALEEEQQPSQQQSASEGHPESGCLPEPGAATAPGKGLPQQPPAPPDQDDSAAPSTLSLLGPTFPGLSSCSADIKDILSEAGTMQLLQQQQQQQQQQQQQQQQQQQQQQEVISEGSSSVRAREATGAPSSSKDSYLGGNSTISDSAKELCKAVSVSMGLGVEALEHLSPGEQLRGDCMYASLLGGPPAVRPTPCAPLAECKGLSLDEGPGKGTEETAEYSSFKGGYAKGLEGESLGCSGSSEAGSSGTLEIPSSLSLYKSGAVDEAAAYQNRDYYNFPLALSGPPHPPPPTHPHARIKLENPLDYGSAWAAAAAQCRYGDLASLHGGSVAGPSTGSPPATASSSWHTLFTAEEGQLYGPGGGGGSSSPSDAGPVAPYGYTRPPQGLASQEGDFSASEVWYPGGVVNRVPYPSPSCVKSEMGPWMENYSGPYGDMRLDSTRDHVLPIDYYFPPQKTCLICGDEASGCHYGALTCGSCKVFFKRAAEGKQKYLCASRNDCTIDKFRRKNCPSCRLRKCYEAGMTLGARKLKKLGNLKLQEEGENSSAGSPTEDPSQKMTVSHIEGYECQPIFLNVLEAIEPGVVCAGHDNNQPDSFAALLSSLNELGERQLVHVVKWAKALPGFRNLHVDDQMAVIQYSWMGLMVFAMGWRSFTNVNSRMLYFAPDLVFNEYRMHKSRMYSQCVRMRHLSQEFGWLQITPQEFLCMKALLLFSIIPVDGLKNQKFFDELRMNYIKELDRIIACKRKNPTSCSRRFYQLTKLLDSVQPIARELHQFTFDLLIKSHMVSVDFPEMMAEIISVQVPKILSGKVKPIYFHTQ
Assay type: cell-based
Method: L929 cells were plated in 96-well plates at 20,000 cells per well, in DMEM/F12 (GIBCO) containing 10% (v/v) charcoal-treated fetal bovine serum (Hyclone) and lacking phenol red. The plates were then incubated overnight at 37° C. in 5% (v/v) humidified CO2.
Test compound dilutions were prepared in 100% (v/v) DMSO, if necessary. Each dilution was made to 1250× the final desired assay concentration.
First, 2 mL of DMEM/F12 lacking phenol red was pipetted into the wells of a 2-mL 96-well assay block. Next, 4 μL of the 1250× test compound dilutions were pipetted into each well of the assay block. The mixtures within the well were then carefully mixed by pipette.
In a 15 mL or 50 mL sterile centrifuge tube, a 2.5 nM (2.5×) dilution of R1881 (methyl-trienolone) in DMEM/F12 lacking phenol red was prepared.
In a second 15 mL or 50 mL centrifuge tube a solution containing an equal volume of DMEM to the first and an equal volume of 100% (v/v) DMSO to the volume of R1881 used in the first tube was prepared.
In a 15 mL or 50 mL sterile centrifuge tube, a dilution in DMEM/F12 of the adenovirus AdEasy+rAR at an moi of 1:500 per well was prepared.
The medium was removed from the 96-well plates by inversion and dried, inverted, very briefly. As soon as possible after medium removal, 40 μL of the diluted unlabeled test compound was added to each well, in duplicate. To each well designated for antagonist testing was added 40 μL of the 2.5 nM R1881 dilution to the wells for antagonist testing. To each well designated for agonist testing was added 40 μL of the DMSO dilution. Then 20 μL of the diluted adenovirus were added to all wells. The plates were incubated for 48 hours at 37° C. in 5% (v/v) humidified CO2.
To each well was added 100 μL of Steady-Glo luciferase assay substrate (Promega) and the plates were placed on a rotary shaker for 1 min. The plates were then incubated at room temperature in the dark for one hour. The contents of each well were then transferred to a white microtiter plate (Packard) and read on a Luminoskan Ascent (Thermo Lab Systems).
L929 AR percent activity was determined by testing dilutions of the test compound using a concentration of 3000 nM unless otherwise noted. L929 percent inhibition was determined by testing dilutions of the test compound using a concentration of 3000 nM. […] Luciferase activity per well were measured and EC50s and IC50s determined by linear regression.
For active / inactive: inhibition of testosterone-enhanced prostate weight in this document: key: 'active' if the non weight adjusted prostate weight was ≦40 mg or the % Inhibition prostate weight, body weight adjusted was ≧40% @ 2 mg/day dosage; ID50's, if determined, of ≦15 mg/day also indicated an 'active' compound; listed herein as 'inactive' as they did not meet the specified criteria defined above.

| Compound | % Activity, L929 androgen receptor functional assay |
| --- | --- |
| CC(O)(CSc1ccc(N)cc1)c1cc2cc(Cl)c(C(F)(F)F)cc2n1S(C)(=O)=O (racemic) [Compound 125] | −5% |
| CC(O)(CSCC(F)(F)F)c1cc2cc(C#N)c(C(F)(F)F)cc2[nH]1 (racemic) [Compound 211] | −1% |

Each molecule was assayed on testosterone-enhanced ventral prostate and seminal vesicle weights (assay: Ventral Prostate and Seminal Vesicle Weight in vivo Assay). Conditions: immature castrated male Sprague Dawley rats, once daily for five days, usually orally 40 mg/kg, with testosterone propionate 2 mg/kg s.c.
Set-up: species or system rat
Method: Immature (approximately 50 g) castrated male Sprague Dawley rats (Charles River) were treated once daily for five days with test compound (usually given orally at 40 mg/kg in a volume of 0.3 mL, in 30% cyclodextrin or 0.5% methylcellulose vehicle) and with testosterone propionate (given subcutaneously by injection at the nape of the neck at 2 mg/kg, in a volume of 0.1 mL in sesame oil). On the sixth day, the rats were euthanized by asphyxiation in carbon dioxide. Ventral prosatates and seminal vesicles were removed and their wet weights determined.
A test compound was said to be “active” if the non weight adjusted prostate weight was ≦40 mg or the % Inhibition prostate weight, body weight adjusted was ≧40% @ 2 mg/day dosage.

| Compound | active / inactive: inhibition of testosterone-enhanced prostate weight |
| --- | --- |
| CC(O)(C[S+]([O-])CC(F)(F)F)c1cc2cc([N+](=O)[O-])c(C(F)(F)F)cc2[nH]1 (mixture of isomers) [Compound 205] | active |
| CC[S+]([O-])CC(C)(O)c1[nH]c2cc(C(F)(F)F)c(C#N)cc2c1C (mixture of isomers) [Compound 245] | inactive |
| CC[S+]([O-])CC(C)(O)c1[nH]c2cc(C(F)(F)F)c(C#N)cc2c1C (mixture of isomers) [Compound 319] | active |
| CCSCC(C)(O)c1cc2nc(C#N)ccc2[nH]1 (racemic) [Compound 6] | inactive |
| CCSCC(C)(O)c1cc2cc([N+](=O)[O-])c(C(F)(F)F)cc2o1 (racemic) [Compound 9] | inactive |
| OC1(c2cc3cc(Cl)c(C(F)(F)F)cc3[nH]2)CCSC1 (racemic) [Compound 14] | inactive |
| N#Cc1cc2cc(C3(O)CCSC3)[nH]c2cc1C(F)(F)F (racemic) [Compound 15] | inactive |
| O=[N+]([O-])c1cc2cc(C3(O)CCSC3)[nH]c2cc1C(F)(F)F (racemic) [Compound 18] | inactive |
| CCSCC(C)(O)c1cc2cc(Cl)c(C(F)(F)F)cc2n1S(C)(=O)=O (racemic) [Compound 146] | inactive |
| CCSCC(C)(O)c1cc2cc([N+](=O)[O-])c(C(F)(F)F)cc2[nH]1 (racemic) [Compound 153] | inactive |
| CCSCC(O)(CC)c1cc2cc(Cl)c(C(F)(F)F)cc2[nH]1 (racemic) [Compound 181] | active |
| CC(O)(CSCc1ccccn1)c1cc2cc([N+](=O)[O-])c(C(F)(F)F)cc2[nH]1 (racemic) [Compound 204] | inactive |
| CCSCC(C)(O)c1cc2cc(C#N)c(Cl)cc2[nH]1 (racemic) [Compound 224] | active |
| CCSCC(C)(O)c1cc2cc(C#N)c(C(F)(F)F)cc2n1CC(F)(F)F (racemic) [Compound 237] | active |
| CCSCC(C)(O)c1cc2cc(C#N)c(C(F)(F)F)cc2n1CC (racemic) [Compound 243] | active |
| CCSCC(C)(O)c1cc2cc(C#N)c(C(F)(F)F)cc2n1COC (racemic) [Compound 322] | inactive |
| CCSCC(C)(O)c1cc2cc(C#N)c(C(F)(F)F)cc2n1CC#N (racemic) [Compound 323] | inactive |
| CCSCC(C)(O)c1[nH]c2cc(C(F)(F)F)c(C#N)cc2c1I (racemic) [Compound 324] | inactive |
| CCSCC(C)(O)c1[nH]c2cc(C(F)(F)F)c(C#N)cc2c1C#C[Si](C)(C)C (racemic) [Compound 325] | inactive |

| Compound | active / inactive: inhibition of testosterone-enhanced prostate weight |
| --- | --- |
| C#Cc1c(C(C)(O)CSCC)[nH]c2cc(C(F)(F)F)c(C#N)cc12 (racemic) [Compound 326] | inactive |
| CCSCC(O)(c1cc2cc(C#N)c(C(F)(F)F)cc2[nH]1)C(F)(F)F (racemic) [Compound 327] | active |
| CC(O)(c1[nH]c2cc(C(F)(F)F)c(C#N)cc2c1I)C(F)(F)F (racemic) [Compound 330] | active |
| CC(O)(c1cc2cc(C#N)c(C(F)(F)F)cc2n1CC#N)C(F)(F)F (racemic) [Compound 331] | active |
| COCn1c(C(C)(O)C(F)(F)F)cc2cc(C#N)c(C(F)(F)F)cc21 (racemic) [Compound 332] | active |
| CSCn1c(C(C)(O)C(F)(F)F)cc2cc(C#N)c(C(F)(F)F)cc21 (racemic) [Compound 333] | active |
| CCSCC(C)(O)c1[nH]c2cc(C(F)(F)F)c(C#N)cc2c1CC (racemic) [Compound 344] | active |
| CCSCC(C)(O)c1cc2cc(Cl)ccc2[nH]1 (racemic) [Compound 353] | inactive |
| CCSCC(C)(O)c1cc2cc(C#N)ccc2[nH]1 (racemic) [Compound 403] | inactive |
| CCS(=O)(=O)CC(C)(O)c1cc2cc(Cl)c(C(F)(F)F)cc2[nH]1 (racemic) [Compound 404] | active |
| CCS(=O)(=O)CC(C)(O)c1cc2cc(C#N)c(C(F)(F)F)cc2[nH]1 (racemic) [Compound 407] | inactive |
| CSCC(O)c1cc2cc(C#N)c(C(F)(F)F)cc2[nH]1 (racemic) [Compound 408] | inactive |
| CCSCC(O)c1cc2cc(C#N)c(C(F)(F)F)cc2[nH]1 (racemic) [Compound 410] | inactive |
| CCSCC(O)c1[nH]c2cc(C(F)(F)F)c(C#N)cc2c1I (racemic) [Compound 411] | inactive |
| CCS(=O)(=O)CC(O)c1cc2cc(C#N)c(C(F)(F)F)cc2[nH]1 (racemic) [Compound 412] | inactive |
| CCSCC(O)c1[nH]c2cc(C(F)(F)F)c(C#N)cc2c1Br (racemic) [Compound 413] | inactive |
| CCSCC(C)(O)c1cc2cc(C)c(C(F)(F)F)cc2[nH]1 (racemic) [Compound 414] | inactive |
| CCSCC(C)(O)c1cc2cc(C#N)c(C)c(I)c2[nH]1 (racemic) [Compound 415] | inactive |
| CCSCC(C)(O)c1cc2cc(C#N)c(OC)cc2[nH]1 (racemic) [Compound 445] | inactive |
